Data set [1] concerns the target T1, Porcine pancreatic α-amylase (Sus scrofa, UniProt P00690).
T1 sequence (P00690 16-511): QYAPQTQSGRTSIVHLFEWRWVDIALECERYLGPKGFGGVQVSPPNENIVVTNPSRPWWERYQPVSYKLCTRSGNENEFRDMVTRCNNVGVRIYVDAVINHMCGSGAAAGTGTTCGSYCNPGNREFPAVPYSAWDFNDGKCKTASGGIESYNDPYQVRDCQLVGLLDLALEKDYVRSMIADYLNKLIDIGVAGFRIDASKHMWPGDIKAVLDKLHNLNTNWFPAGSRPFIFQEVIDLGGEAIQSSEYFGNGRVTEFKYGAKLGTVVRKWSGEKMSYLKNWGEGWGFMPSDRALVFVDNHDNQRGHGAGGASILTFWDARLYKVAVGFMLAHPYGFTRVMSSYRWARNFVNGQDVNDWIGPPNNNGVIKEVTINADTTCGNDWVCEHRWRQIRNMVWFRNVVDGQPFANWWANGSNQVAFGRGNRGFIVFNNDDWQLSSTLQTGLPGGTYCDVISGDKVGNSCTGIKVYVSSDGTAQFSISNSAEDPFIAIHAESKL
Kind of data set: α-amylase inhibition assay (starch / dinitrosalicylic acid). The conditions noted are these: for IC50: in vitro, mean ± SEM. Format: biochemical. On the procedure:
After preincubation, 40 μL of a 1% starch solution in 0.02 M sodium phosphate buffer (pH 6.9 with 0.006 M sodium chloride) was added to each tube at 5 s intervals. […] The reaction was stopped with 100 μL of dinitro salicylic acid color reagent. The test tubes were then incubated in a boiling water bath for 5 min and cooled to room temperature. The reaction mixture was then diluted after adding 900 μL distilled water and the absorbance was measured at 540 nm.
Ac = the absorbance of the control
As = the absorbance of the sample

For orientation: IC50 means the concentration at which inhibition is half-maximal. A word on the melting point: it is the temperature, or range, at which the solid turns liquid. `O=[N+]([O-])c1ccc(-n2c(-c3ccc4cccnc4c3)n[nH]c2=S)cc1` [7d, 4-(4-Nitrophenyl)-5-(quinolin-7-yl)-2,4-dihydro-3H-1,2,4-triazole-3-thione] yielded a melting point of 127 to 128 °C. This molecule had an IC50 in data set [1] of 11.6 ± 0.2 µM.

Molecule `S=c1[nH]nc(-c2ccc3cccnc3c2)n1-c1ccc(-c2ccccc2)cc1` [19d] returned an IC50 in data set [1] of 18.5 ± 0.3 µM.

In the case of `S=c1[nH]nc(-c2ccc3cccnc3c2)n1-c1cccc(Br)c1` [16d, 4-(3-Bromophenyl)-5-(quinolin-7-yl)-2,4-dihydro-3H-1,2,4-triazole-3-thione], the melting point was in the range of 130 to 131 °C. In data set [1], this molecule displayed an IC50 of 31.8 ± 0.6 µM.

In turn, `Cc1cccc(-n2c(-c3ccc4cccnc4c3)n[nH]c2=S)c1` [3d, 5-(Quinolin-7-yl)-4-(m-tolyl)-2,4-dihydro-3H-1,2,4-triazole-3-thione] returned a melting point of 136 to 137 °C. The IC50 in data set [1] came to 32.3 ± 0.6 µM.

`S=c1[nH]nc(-c2ccc3cccnc3c2)n1-c1ccc(Cl)c(Cl)c1` [18d, 4-(3,4-Dichlorophenyl)-5-(quinolin-7-yl)-2,4-dihydro-3H-1,2,4-triazole-3-thione] had a melting point of 133 to 134 °C. The molecule further yielded an IC50 in data set [1] of 1.8 ± 0.1 µM.

Consider `Cc1ccc(-n2c(-c3ccc4cccnc4c3)n[nH]c2=S)cc1` [4d, 5-(Quinolin-7-yl)-4-(p-tolyl)-2,4-dihydro-3H-1,2,4-triazole-3-thione], for which the melting point fell in the range of 127 to 128 °C. The same molecule gave an IC50 in data set [1] of 21.6 ± 0.4 µM.

In turn, `O=[N+]([O-])c1ccccc1-n1c(-c2ccc3cccnc3c2)n[nH]c1=S` [5d, 4-(2-Nitrophenyl)-5-(quinolin-7-yl)-2,4-dihydro-3H-1,2,4-triazole-3-thione] had a melting point of 139 to 140 °C. For the same molecule, half-maximal inhibition in data set [1] (IC50) required 5.3 ± 0.2 µM.

`S=c1[nH]nc(-c2ccc3cccnc3c2)n1-c1ccccc1Br` [15d, 4-(2-Bromophenyl)-5-(quinolin-7-yl)-2,4-dihydro-3H-1,2,4-triazole-3-thione] came in with a melting point of 135 to 136 °C. In data set [1], this molecule yielded an IC50 of 17.2 ± 0.3 µM.

Consider `S=c1[nH]nc(-c2ccc3cccnc3c2)n1-c1ccc(Br)cc1` [17d, 4-(4-Bromophenyl)-5-(quinolin-7-yl)-2,4-dihydro-3H-1,2,4-triazole-3-thione], for which the melting point was 132 to 133 °C. The molecule also came in with an IC50 in data set [1] of 19.2 ± 0.3 µM.

Regarding `S=c1[nH]nc(-c2ccc3cccnc3c2)n1-c1ccccc1` [1d, 4-Phenyl-5-(quinolin-7-yl)-2,4-dihydro-3H-1,2,4-triazole-3-thione], the melting point was 137 to 138 °C (dec.). The molecule further showed an IC50 in data set [1] of 40.2 ± 0.7 µM.

For `Fc1ccc(-n2c(-c3ccc4cccnc4c3)n[nH]c2=S)cc1` [11d, 4-(4-Fluorophenyl)-5-(quinolin-7-yl)-2,4-dihydro-3H-1,2,4-triazole-3-thione], the melting point is 131 to 132 °C. In data set [1], 0.8 ± 0.05 µM corresponded to half-maximal inhibition (IC50). Besides, the “enhanced potency than standard acarbose drug (α-amylase)” value in data set [1] (relative to acarbose) is recorded as “ten-fold”.

With `Fc1ccccc1-n1c(-c2ccc3cccnc3c2)n[nH]c1=S` [9d, 4-(2-Fluorophenyl)-5-(quinolin-7-yl)-2,4-dihydro-3H-1,2,4-triazole-3-thione], the melting point is 129 to 130 °C. In data set [1], this molecule displayed an IC50 of 1.5 ± 0.1 µM.

Regarding `Fc1cccc(-n2c(-c3ccc4cccnc4c3)n[nH]c2=S)c1` [10d, 4-(3-Fluorophenyl)-5-(quinolin-7-yl)-2,4-dihydro-3H-1,2,4-triazole-3-thione], the melting point was 128 to 129 °C. In addition, inhibition in data set [1] was half-maximal at 2.1 ± 0.1 µM (IC50).

Take `S=c1[nH]nc(-c2ccc3cccnc3c2)n1-c1ccc(Cl)cc1` [14d, 4-(4-Chlorophenyl)-5-(quinolin-7-yl)-2,4-dihydro-3H-1,2,4-triazole-3-thione]: the melting point is 131 to 132 °C. In data set [1], inhibition was half-maximal at 6.4 ± 0.3 µM (IC50). The “more potency than scaffold 7d (α-amylase)” value in data set [1] (relative to 7d) amounted to 2 folds.

`S=c1[nH]nc(-c2ccc3cccnc3c2)n1-c1cccc(Cl)c1` [13d, 4-(3-Chlorophenyl)-5-(quinolin-7-yl)-2,4-dihydro-3H-1,2,4-triazole-3-thione]: the melting point was 141 to 142 °C. In data set [1], this molecule came in with an IC50 of 14.6 ± 0.3 µM.

On to `Cc1ccccc1-n1c(-c2ccc3cccnc3c2)n[nH]c1=S` [2d, 5-(Quinolin-7-yl)-4-(o-tolyl)-2,4-dihydro-3H-1,2,4-triazole-3-thione], for which the melting point lay within 139 to 140 °C. Further, the midpoint of inhibition in data set [1], the IC50, lay at 22.6 ± 0.6 µM.

The molecule `O=[N+]([O-])c1cccc(-n2c(-c3ccc4cccnc4c3)n[nH]c2=S)c1` [6d, 4-(3-Nitrophenyl)-5-(quinolin-7-yl)-2,4-dihydro-3H-1,2,4-triazole-3-thione] displayed a melting point of 130 to 131 °C. In data set [1], the IC50 stood at 21.4 ± 0.3 µM.

Consider `COc1ccc(-n2c(-c3ccc4cccnc4c3)n[nH]c2=S)cc1` [8d, 4-(4-Methoxyphenyl)-5-(quinolin-7-yl)-2,4-dihydro-3H-1,2,4-triazole-3-thione], for which the melting point lay in the range of 134 to 135 °C.

The molecule `S=c1[nH]nc(-c2ccc3cccnc3c2)n1-c1ccccc1Cl` [12d, 4-(2-Chlorophenyl)-5-(quinolin-7-yl)-2,4-dihydro-3H-1,2,4-triazole-3-thione] had a melting point of 136 to 137 °C. In data set [1], this molecule returned an IC50 of 4.3 ± 0.1 µM.

The values above are taken from article PMC9520911, “New quinoline-based triazole hybrid analogs as effective inhibitors of α-amylase and α-glucosidase: Preparation, in vitro evaluation, and molecular docking along with in silico studies” (Frontiers in Chemistry, 2022).
